Measurements taken from ChEMBL document CHEMBL1275483, “Staphylococcus aureus cell wall stress stimulon gene-lacZ fusion strains: potential for use in screening for cell wall-active antimicrobials” (2008).
Values after ≈ are worked out from the molar mass of the structure shown. Active and inactive are the calls of the source. No cut-off for these calls is given here.

Columns and labels:
Staphylococcus aureus [1] = assay: Induction of Ppbp2::lacZ gene expression in Staphylococcus aureus SH1000 at 0.3 ug/ml after 0.5 hrs by beta-galactosidase reporter gene assay relative to untreated control; assay type: functional, organism-based
Staphylococcus aureus [2] = assay: Antimicrobial activity against beta-lactamase producing Staphylococcus aureus SH1000; assay type: functional
Staphylococcus aureus [3] = assay: Induction of PlytR::lacZ gene expression in Staphylococcus aureus SH1000 at 8 ug/ml after 2 hrs by beta-galactosidase reporter gene assay relative to untreated control; assay type: functional, organism-based
Staphylococcus aureus [4] = assay: Induction of PtcaA::lacZ gene expression in Staphylococcus aureus SH1000 at 8 ug/ml after 2 hrs by beta-galactosidase reporter gene assay relative to untreated control; assay type: functional, organism-based
Staphylococcus aureus [5] = assay: Induction of Ppbp2::lacZ gene expression in Staphylococcus aureus SH1000 at 8 ug/ml after 2 hrs by beta-galactosidase reporter gene assay relative to untreated control; assay type: functional, organism-based
Staphylococcus aureus [6] = assay: Induction of PsgtB::lacZ gene expression in Staphylococcus aureus SH1000 at 8 ug/ml after 2 hrs by beta-galactosidase reporter gene assay relative to untreated control; assay type: functional, organism-based
Staphylococcus aureus [7] = assay: Induction of PvraSr::lacZ gene expression in Staphylococcus aureus SH1000 at 8 ug/ml after 2 hrs by beta-galactosidase reporter gene assay relative to untreated control; assay type: functional, organism-based
Staphylococcus aureus [8] = assay: Induction of PvraSr::lacZ gene expression in Staphylococcus aureus SH1000 at 0.05 ug/ml after 2 hrs by beta-galactosidase reporter gene assay relative to untreated control; assay type: functional
Staphylococcus aureus [9] = assay: Induction of Ppbp2::lacZ gene expression in Staphylococcus aureus SH1000 at 0.05 ug/ml after 2 hrs by beta-galactosidase reporter gene assay relative to untreated control; assay type: functional
Staphylococcus aureus [10] = assay: Induction of PsgtB::lacZ gene expression in Staphylococcus aureus SH1000 at 0.05 ug/ml after 2 hrs by beta-galactosidase reporter gene assay relative to untreated control; assay type: functional
Staphylococcus aureus [11] = assay: Induction of PtcaA::lacZ gene expression in Staphylococcus aureus SH1000 at 0.05 ug/ml after 2 hrs by beta-galactosidase reporter gene assay relative to untreated control; assay type: functional
Staphylococcus aureus [12] = assay: Induction of PlytR::lacZ gene expression in Staphylococcus aureus SH1000 at 0.05 ug/ml after 2 hrs by beta-galactosidase reporter gene assay relative to untreated control; assay type: functional
Staphylococcus aureus [13] = assay: Induction of Ppbp2::lacZ gene expression in Staphylococcus aureus SH1000 at 3 ug/ml after 2 hrs by beta-galactosidase reporter gene assay relative to untreated control; assay type: functional
Staphylococcus aureus [14] = assay: Induction of PvraSr::lacZ gene expression in Staphylococcus aureus SH1000 at 3 ug/ml after 2 hrs by beta-galactosidase reporter gene assay relative to untreated control; assay type: functional
Staphylococcus aureus [15] = assay: Induction of PlytR::lacZ gene expression in Staphylococcus aureus SH1000 at 3 ug/ml after 2 hrs by beta-galactosidase reporter gene assay relative to untreated control; assay type: functional
Staphylococcus aureus [16] = assay: Induction of PtcaA::lacZ gene expression in Staphylococcus aureus SH1000 at 3 ug/ml after 2 hrs by beta-galactosidase reporter gene assay relative to untreated control; assay type: functional
Staphylococcus aureus [17] = assay: Induction of PsgtB::lacZ gene expression in Staphylococcus aureus SH1000 at 3 ug/ml after 2 hrs by beta-galactosidase reporter gene assay relative to untreated control; assay type: functional
Staphylococcus aureus [18] = assay: Induction of PvraSr::lacZ gene expression in Staphylococcus aureus SH1000 at 2 ug/ml after 2 hrs by beta-galactosidase reporter gene assay relative to untreated control; assay type: functional
Staphylococcus aureus [19] = assay: Induction of PlytR::lacZ gene expression in Staphylococcus aureus SH1000 at 2 ug/ml after 2 hrs by beta-galactosidase reporter gene assay relative to untreated control; assay type: functional
Staphylococcus aureus [20] = assay: Induction of PtcaA::lacZ gene expression in Staphylococcus aureus SH1000 at 2 ug/ml after 2 hrs by beta-galactosidase reporter gene assay relative to untreated control; assay type: functional
Staphylococcus aureus [21] = assay: Induction of PsgtB::lacZ gene expression in Staphylococcus aureus SH1000 at 2 ug/ml after 2 hrs by beta-galactosidase reporter gene assay relative to untreated control; assay type: functional
Staphylococcus aureus [22] = assay: Induction of Ppbp2::lacZ gene expression in Staphylococcus aureus SH1000 at 2 ug/ml after 2 hrs by beta-galactosidase reporter gene assay relative to untreated control; assay type: functional
Staphylococcus aureus [23] = assay: Induction of PsgtB::lacZ gene expression in Staphylococcus aureus SH1000 at 1 ug/ml after 2 hrs by beta-galactosidase reporter gene assay relative to untreated control; assay type: functional
Staphylococcus aureus [24] = assay: Induction of PvraSr::lacZ gene expression in Staphylococcus aureus SH1000 at 1 ug/ml after 2 hrs by beta-galactosidase reporter gene assay relative to untreated control; assay type: functional
Staphylococcus aureus [25] = assay: Induction of PlytR::lacZ gene expression in Staphylococcus aureus SH1000 at 1 ug/ml after 2 hrs by beta-galactosidase reporter gene assay relative to untreated control; assay type: functional
Staphylococcus aureus [26] = assay: Induction of PtcaA::lacZ gene expression in Staphylococcus aureus SH1000 at 1 ug/ml after 2 hrs by beta-galactosidase reporter gene assay relative to untreated control; assay type: functional
Staphylococcus aureus [27] = assay: Induction of Ppbp2::lacZ gene expression in Staphylococcus aureus SH1000 at 1 ug/ml after 2 hrs by beta-galactosidase reporter gene assay relative to untreated control; assay type: functional

## Cc1onc(-c2ccccc2)c1C(=O)N[C@@H]1C(=O)N2[C@@H]1SC(C)(C)[C@@H]2C(=O)O [OXACILLIN]
Staphylococcus aureus [1]
  Activity: Active
Staphylococcus aureus [2]
  MIC: 1 µg/mL (≈ 2.49 µM)
Staphylococcus aureus [3]
  Activity: Active
Staphylococcus aureus [4]
  Activity: Active
Staphylococcus aureus [5]
  Activity: Active
Staphylococcus aureus [6]
  Activity: Active
Staphylococcus aureus [7]
  Activity: Active

## CO[C@H]1/C=C/O[C@@]2(C)Oc3c(C)c(O)c4c(O)c(c(/C=N/N5CCN(C)CC5)c(O)c4c3C2=O)NC(=O)/C(C)=C\C=C\[C@H](C)[C@H](O)[C@@H](C)[C@@H](O)[C@@H](C)[C@H](OC(C)=O)[C@@H]1C [RIFAMPIN]
Staphylococcus aureus [8]
  fold change (FC): 1.2
Staphylococcus aureus [2]
  MIC: 0.05 µg/mL (≈ 0.0608 µM)
Staphylococcus aureus [9]
  fold change (FC): 1.9
Staphylococcus aureus [10]
  fold change (FC): 1.19
Staphylococcus aureus [11]
  fold change (FC): 0.99
Staphylococcus aureus [12]
  fold change (FC): 0.98

## CN[C@@H]1[C@H](O[C@H]2[C@H](O[C@H]3[C@H](O)[C@@H](O)[C@H](N=C(N)N)[C@@H](O)[C@@H]3N=C(N)N)O[C@@H](C)[C@]2(O)C=O)O[C@@H](CO)[C@H](O)[C@H]1O [STREPTOMYCIN]
Staphylococcus aureus [13]
  fold change (FC): 0.3
Staphylococcus aureus [14]
  fold change (FC): 0.96
Staphylococcus aureus [15]
  fold change (FC): 0.7
Staphylococcus aureus [2]
  MIC: 1.5 µg/mL (≈ 2.58 µM)
Staphylococcus aureus [16]
  fold change (FC): 0.79
Staphylococcus aureus [17]
  fold change (FC): 0.41

## CN(C)[C@@H]1C(O)=C(C(N)=O)C(=O)[C@@]2(O)C(O)=C3C(=O)c4c(O)cccc4[C@@](C)(O)[C@H]3C[C@@H]12 [TETRACYCLINE]
Staphylococcus aureus [18]
  fold change (FC): 0.52
Staphylococcus aureus [2]
  MIC: 0.5 µg/mL (≈ 1.13 µM)
Staphylococcus aureus [19]
  fold change (FC): 0.5
Staphylococcus aureus [20]
  fold change (FC): 0.53
Staphylococcus aureus [21]
  fold change (FC): 0.4
Staphylococcus aureus [22]
  fold change (FC): 0.52

## COc1cc(Cc2cnc(N)nc2N)cc(OC)c1OC [TRIMETHOPRIM]
Staphylococcus aureus [23]
  fold change (FC): 1.19
Staphylococcus aureus [24]
  fold change (FC): 0.9
Staphylococcus aureus [25]
  fold change (FC): 0.92
Staphylococcus aureus [26]
  fold change (FC): 1.24
Staphylococcus aureus [27]
  fold change (FC): 0.88
